Results: PubChem BioAssay AID330 (DTP/NCI, 2004)
Toxic doses and inconclusive results are not listed. Bridge positions count the residues as written; N and C are the ends. Square brackets hold non-standard residues; d marks the D form. Peptide text beside a SMILES is read from it. I, II: the chains in the order shown. * marks the point of attachment. Quinoxaline2carbonyl = O=C(c1cnc2ccccc2n1)*; NMeV = CN[CH](C(=O)O)C(C)C; NMeC = CN[CH](CS)C(=O)O

Test system: P388 leukemia ip, CD2F1 mice, survival T/C
Experiment: NCI In Vivo Anticancer Drug Screen. Data for tumor model P388 Leukemia (intraperitoneal) in CD2F1 (CDF1) mice
Conditions: endpoint: median survival time, higher = longer survival
Procedure, shortened: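 Mice carrying the transplanted tumor received test compound or vehicle. Survival was recorded in each group, and the value is the treated-group measurement divided by that of the vehicle-treated control group.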

[1] = dose: 100.0 mg/kg/injection, schedule: Q04DX003 (ip), vehicle: saline with Tween-80
[2] = dose: 200.0 mg/kg/injection, schedule: Q04DX003 (ip), vehicle: saline with Tween-80
[3] = dose: 400.0 mg/kg/injection, schedule: Q04DX003 (ip), vehicle: saline with Tween-80
[4] = dose: 50.0 mg/kg/injection, schedule: Q01DX005 (ip), vehicle: saline with Tween-80
[5] = dose: 100.0 mg/kg/injection, schedule: Q01DX005 (ip), vehicle: saline with Tween-80
[6] = dose: 200.0 mg/kg/injection, schedule: Q01DX005 (ip), vehicle: saline with Tween-80

CCCCCCCCCCCCCCCCSCC(COC)COP(=O)([O-])OCC[N+](C)(C)C (centres undefined)
T/C (dose: 1.25 mg/kg/injection, schedule: Q01DX005 (oral), vehicle: saline): 109 % of control | T/C (dose: 2.5 mg/kg/injection, schedule: Q01DX005 (oral), vehicle: saline): 106 % of control | T/C (dose: 5.0 mg/kg/injection, schedule: Q01DX005 (oral), vehicle: saline): 110 % of control | T/C (dose: 10.0 mg/kg/injection, schedule: Q01DX005 (oral), vehicle: saline): 110 % of control | T/C (dose: 20.0 mg/kg/injection, schedule: Q01DX005 (oral), vehicle: saline): 109 % of control | T/C (dose: 40.0 mg/kg/injection, schedule: Q01DX005 (oral), vehicle: saline): 108 % of control

O=C(O)C(S)c1ccc2ccccc2c1 (centres undefined)
T/C (dose: 100.0 mg/kg/injection, schedule: Q01DX009 (ip), vehicle: Klucel (hydroxypropylcellulose) (HPC)): 90 % of control | T/C (dose: 200.0 mg/kg/injection, schedule: Q01DX009 (ip), vehicle: Klucel (hydroxypropylcellulose) (HPC)): 100 % of control

C=C(C)C1Cc2c(ccc3c(=O)c4c(oc23)c(=O)oc2cc(OC)c(OC)cc24)O1 (centres undefined)
T/C [1]: 103 % of control | T/C [2]: 98 % of control | T/C [3]: 105 % of control

CN(c1ncc(Cc2cnc(N(C)C3CCN(Cc4ccccc4)CC3)nc2)cn1)C1CCN(Cc2ccccc2)CC1
T/C [4]: 93 % of control | T/C [5]: 96 % of control | T/C [6]: 92 % of control

C=CCOCC1CN2CCOC2(C)O1 (centres undefined)
T/C (dose: 200.0 mg/kg/injection, schedule: Q01DX009 (ip), vehicle: water): 105 % of control | T/C (dose: 400.0 mg/kg/injection, schedule: Q01DX009 (ip), vehicle: water): 97 % of control | T/C (dose: 800.0 mg/kg/injection, schedule: Q01DX009 (ip), vehicle: water): 105 % of control | T/C (dose: 1600.0 mg/kg/injection, schedule: Q01DX009 (ip), vehicle: water): 102 % of control

CC[Si](CC)(CC)OC(C#N)c1ccc2c(c1)OCO2 (centres undefined)
T/C [4]: 104 % of control | T/C [5]: 104 % of control | T/C [6]: 100 % of control

COc1cc(OCc2ccc(OCc3ccccc3)cc2)cc(OC)c1OC
T/C [4]: 93 % of control | T/C [5]: 105 % of control | T/C [6]: 95 % of control

COC(=O)/C=C/c1cc(=O)nc2sc3ccccc3n12
T/C (dose: 60.0 mg/kg/injection, schedule: Q01DX005 (ip), vehicle: Klucel (hydroxypropylcellulose) (HPC)): 93 % of control | T/C (dose: 120.0 mg/kg/injection, schedule: Q01DX005 (ip), vehicle: Klucel (hydroxypropylcellulose) (HPC)): 93 % of control | T/C (dose: 240.0 mg/kg/injection, schedule: Q01DX005 (ip), vehicle: Klucel (hydroxypropylcellulose) (HPC)): 94 % of control

CC1NC(=O)C(NC(=O)c2cnc3ccccc3n2)COC(=O)C(C(C)C)N(C)C(=O)C2CSSCC(C(=O)N(C)C(C(C)C)C(=O)OCC(NC(=O)c3cnc4ccccc4n3)C(=O)NC(C)C(=O)N2C)N(C)C1=O (centres undefined) (I: Quinoxaline2carbonyl-SA[NMeC][NMeV] / II: Quinoxaline2carbonyl-SA[NMeC][NMeV]; ester I:1-II:C, I:C-II:1; disulfide I:3-II:3; configuration not given here)
T/C (dose: 25.0 micrograms/kg/injection, schedule: Q01DX009 (ip), vehicle: water): 150 % of control | T/C (dose: 50.0 micrograms/kg/injection, schedule: Q01DX009 (ip), vehicle: water): 153 % of control | T/C (dose: 100.0 micrograms/kg/injection, schedule: Q01DX009 (ip), vehicle: water): 185 % of control

CCCCN(CC)CC(CC)Nc1cc(OC)cc2cccnc12 (centres undefined)
T/C [4]: 102 % of control | T/C [5]: 95 % of control | T/C [6]: 101 % of control

CCCn1c(=S)[nH]c2ccccc2c1=O
T/C (dose: 100.0 mg/kg/injection, schedule: Q01DX009 (ip), vehicle: saline with Tween-80): 95 % of control | T/C [1]: 100 % of control | T/C (dose: 200.0 mg/kg/injection, schedule: Q01DX009 (ip), vehicle: saline with Tween-80): 90 % of control | T/C [2]: 91 % of control | T/C (dose: 400.0 mg/kg/injection, schedule: Q01DX009 (ip), vehicle: saline with Tween-80): 100 % of control | T/C [3]: 91 % of control

CN1Cc2[nH]c3c(c2C(O)C1)C(=O)CC(C)(C)C3 (centres undefined)
T/C (dose: 50.0 mg/kg/injection, schedule: Q04DX002 (ip), vehicle: saline): 94 % of control | T/C (dose: 100.0 mg/kg/injection, schedule: Q04DX002 (ip), vehicle: saline): 103 % of control | T/C (dose: 200.0 mg/kg/injection, schedule: Q04DX002 (ip), vehicle: saline): 101 % of control

[B-][N+](C)(C)C
T/C [4]: 98 % of control | T/C [5]: 98 % of control
